# Test results taken from patent publication US10364256B2 (GlaxoSmithKline Intellectual Property Development Limited, priority 2015, dated 2019).
# Like-named read-outs stand apart in the source and are kept apart here.
# Key:
# [1] = target: T1, full length Keap1 protein / full length NRF2 protein (Homo sapiens, UniProt Q14145); assay: NRF2-Keap1 TR-FRET Assay; assay type: binding; details: 25 nM Keap1-FlagHis and 50 nM biotin-NRF2 added
# T1 construct: full length NRF2 protein and full length Keap1 protein (Keap1 exists a dimer) are used; His
# T1 sequence (Q14145 whole entry): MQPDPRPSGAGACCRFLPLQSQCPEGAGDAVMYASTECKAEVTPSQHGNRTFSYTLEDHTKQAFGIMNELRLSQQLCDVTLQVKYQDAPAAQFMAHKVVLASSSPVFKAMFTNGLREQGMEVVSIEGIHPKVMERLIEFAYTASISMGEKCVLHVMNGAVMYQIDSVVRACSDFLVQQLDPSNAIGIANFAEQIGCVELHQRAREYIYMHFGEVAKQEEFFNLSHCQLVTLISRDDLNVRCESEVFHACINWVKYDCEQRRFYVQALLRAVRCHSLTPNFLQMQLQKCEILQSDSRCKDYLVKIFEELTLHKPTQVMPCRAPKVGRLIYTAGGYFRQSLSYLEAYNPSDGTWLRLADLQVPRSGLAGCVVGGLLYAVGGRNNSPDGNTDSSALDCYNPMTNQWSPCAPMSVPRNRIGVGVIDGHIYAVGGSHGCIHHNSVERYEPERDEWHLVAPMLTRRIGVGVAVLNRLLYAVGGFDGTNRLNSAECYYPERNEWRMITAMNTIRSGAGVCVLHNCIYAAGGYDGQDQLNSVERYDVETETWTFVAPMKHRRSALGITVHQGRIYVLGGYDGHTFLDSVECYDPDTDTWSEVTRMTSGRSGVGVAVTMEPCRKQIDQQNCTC
# Method in brief: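 Displacement of biotinylated full-length NRF2 from full-length Keap1 read by Eu/APC TR-FRET (665/615 nm) after 1 h detection at RT. Compound, 3-fold series, first incubated with Keap1 at 37 °C for 2.25 h, NRF2 then added at 4 °C for 1.25 h; pIC50 by four-parameter equation.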
# [2] = tested on: NQO1 specific enzyme activity in BEAS-2B cells (marker for NRF2 activation); assay: BEAS-2B NQO1 MTT Assay; assay type: cell-based; details: compound incubated 48 hours, read-out: EC50 (NQO1 specific enzyme activity induction)
# Method in brief: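 NQO1 specific activity induction is derived from the rate of MTT reduction (ΔOD/min, 570 nm, 30 min kinetic read) in crude lysates of BEAS-2B cells exposed to compound for 48 h. A 3-parameter fit gives EC50, reported as pEC50; part of each lysate goes to Cell Titer Glo.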
IC50 [1] [nM],Molecule,EC50 [2] [nM],EC50 ([2]; Homo sapiens) [nM]
10 to 100,"Cn1cc([C@H]2C[C@@H]2c2c(C(=O)O)cnn2-c2cccc(-c3cccc(C(=O)N4CCCCC4)c3F)c2)nn1 (racemic) [Example 258, 1-(2′-Fluoro-3′-(piperidine-1-carbonyl)-[1,1′-biphenyl]-3-yl)-5-(trans-2-(1-methyl-1H-1,2,3-triazol-4-yl)cyclopropyl)-1H-pyrazole-4-carboxylic Acid]",–,100 to 1000
10 to 100,"Cn1cc([C@H]2C[C@@H]2c2c(C(=O)O)cnn2-c2cccc(-c3cccc(C(=O)N4CCCC(C)(C)C4)c3F)c2)nn1 (racemic) [Example 259, 1-(2′-Fluoro-3′-(3,3-dimethylpiperidine-1-carbonyl)-[1,1′-biphenyl]-3-yl)-5-(trans-2-(1-methyl-1H-1,2,3-triazol-4-yl)cyclopropyl)-1H-pyrazole-4-carboxylic Acid]",–,100 to 1000
10 to 100,"Cn1cc([C@H]2C[C@@H]2c2c(C(=O)O)cnn2-c2cccc(-c3cccc(C(=O)N4CCCCCC4)c3F)c2)nn1 (racemic) [Example 260, 1-(2′-Fluoro-3′-(azepane-1-carbonyl)-[1,1′-biphenyl]-3-yl)-5-(trans-2-(1-methyl-1H-1,2,3-triazol-4-yl)cyclopropyl)-1H-pyrazole-4-carboxylic Acid]",–,100 to 1000
10 to 100,"CC1CC(C)CN(C(=O)c2cccc(-c3cccc(-n4ncc(C(=O)O)c4[C@@H]4C[C@H]4c4cn(C)nn4)c3)c2F)C1 (mixture of isomers) [Example 263, 1-(3′-(3,5-Dimethylpiperidine-1-carbonyl)-2′-fluoro-[1,1′-biphenyl]-3-yl)-5-(2-(1-methyl-1H-1,2,3-triazol-4-yl)cyclopropyl)-1H-pyrazole-4-carboxylic Acid]",–,100 to 1000
10 to 100,"COCC1CCCCN1C(=O)c1cccc(-c2cccc(-n3ncc(C(=O)O)c3C3C[C@H]3c3cn(C)nn3)c2)c1F (mixture of isomers) [Example 264, 1-(3′-(2-(Methoxymethyl)piperidine-1-carbonyl)-2′-fluoro-[1,1′-biphenyl]-3-yl)-5-(trans-2-(1-methyl-1H-1,2,3-triazol-4-yl)cyclopropyl)-1H-pyrazole-4-carboxylic Acid]",–,100 to 1000

# More lines, now with the values behind:
Molecule,IC50 [1] [nM],EC50 [2] [nM],EC50 ([2]; Homo sapiens) [nM]
"1-(3′-((2-chlorocyclohexyl)methoxy)-[1,1′-biphenyl]-3-yl)-5-((1,2-trans)-2-(1-methyl-1H-1,2,3-triazol-4-yl)cyclopropyl)-1H-pyrazole-4-carboxylic acid [Example 186]",100 to 1000,10 to 100,–
"Cn1cc([C@@H]2C[C@H]2c2c(C(=O)O)cnn2-c2cccc(-c3cccc(-n4ncc5c4C(C)(C)CC5)c3)n2)nn1 (racemic) [Example 251, 1-(6-(3-(6,6-Dimethyl-5,6-dihydrocyclopenta[c]pyrazol-1(4H)-yl)phenyl)pyridin-2-yl)-5-(trans-2-(1-methyl-1H-1,2,3-triazol-4-yl)cyclopropyl)-1H-pyrazole-4-carboxylic Acid]",10 to 100,–,100 to 1000
"Cn1cc([C@@H]2C[C@H]2c2c(C(=O)O)cnn2-c2cccc(-c3cccc(CN4Cc5ccccc5OC(C)(C)C4)c3)c2)nn1 (racemic) [Example 254, 1-(3′-((2,2-Dimethyl-2,3-dihydrobenzo[f][1,4]oxazepin-4(5H)-yl)methyl)-[1,1′-biphenyl]-3-yl)-5-(trans-2-(1-methyl-1H-1,2,3-triazol-4-yl)cyclopropyl)-1H-pyrazole-4-carboxylic Acid]",100 to 1000,–,100 to 1000
"CC(C)CN(C)C(=O)c1cccc(-c2cccc(-n3ncc(C(=O)O)c3[C@@H]3C[C@H]3c3cn(C)nn3)c2)c1F (racemic) [Example 266, 1-(2′-Fluoro-3′(isobutyl(methyl)carbamoyl)-[1,1′-biphenyl]-3-yl)-5-(trans-2-(1-methyl-1H-1,2,3-triazol-4-yl)cyclopropyl)-1H-pyrazole-4-carboxylic Acid]",10 to 100,–,100 to 1000
